{"source": "patent US10980901B2", "about": "“Treatment of PMSA expressing cancers” (THE EUROPEAN ATOMIC ENERGY COMMUNITY (EURATOM), REPRESENTED …, priority 2016, dated 2021)", "key": {"[1]": {"test_system": "PSMA expressing cancers", "assay": "Treatment response monitored by PSA values in blood, patient cohorts", "assay_type": "in vivo, patients", "conditions": "for patients in PSA response / patients in PSA response (percentage): at week-24", "experimental": "20 Patients were treated 3 times with activities of 100 kBq/kg body weight of Ac-225-PSMA-617 in two month intervals.\nTreatment response was monitored by PSA values in blood and with PET/CT (positron emission tomography-computed tomography) with Ga-68-PSMA-HBED-CC (also called Gallium-68-PSMA11) before therapy and after the third therapy.\nExperiments have been conducted to compare the efficiency of the Ac-225-radiopharmaceuticals as used in the present invention, such as Ac-225-PSMA-617, with that of non-Ac-225-radiopharmaceuticals comprising the same targeting compound, but chelated e.g. with Lu-177, such as a radionuclide Lu-177-PSMA-617."}, "[2]": {"assay": "Toxicity monitored by blood sampling and clinical side effects, patient cohorts", "assay_type": "in vivo, patients", "conditions": "patient cohort; for change in thrombocyte or white blood cell count: during therapy; for dysfunction of salivary glands: reported side effect; for tolerability of the treatment: lab tests every 4 weeks, clinical side effects every 8 weeks", "experimental": "Toxicity was monitored by blood sampling.\nHematologic response was evaluated every 4 weeks per lab tests and clinical side effects were monitored every 8 weeks."}, "[3]": {"assay": "Laboratory test follow-up and side effects of individual mCRPC patients A and B", "assay_type": "in vivo", "source_text": "After each cycle, the blood cell count and alkaline phosphatase level were checked every 2 week. The platelet level never dropped below 100/n1 (grade 1 according to the Common Terminology Criteria for Adverse Events, version 4.0), the total white blood cell count never dropped below 2.5/n1 (grade 1), and the hemoglobin level never dropped below 9.5 g/dl (grade 2) (FIG. 13A). […] A concordant decline in PSA level and alkaline phosphatase level (FIG. 13B) further underlined the excellent treatment response.\n(§1) Patient B was initially treated with Lu-177-PSMA-617 (7.4 GBq per cycle), which was offered as salvage therapy. The initial PSA level was 294 ng/ml. […] Therapy was changed to Ac-225-PSMA-617, and the patient received 3 cycles of 6.4 MBq (100 kBq per kilogram of body weight) at bimonthly intervals."}, "[4]": {"test_system": "metastatic castration-resistant prostate cancer (mCRPC)", "assay": "Treatment of individual mCRPC patients A and B: PSA level and PSMA PET/CT restaging", "assay_type": "in vivo", "experimental": "Clinical Course of Patient A presented with diffuse red marrow infiltration of mCRPC (this physical condition was considered a contraindication for treatment with β-emitters). Patient A was treated with 3 cycles of 9-10 MBq (100 kBq per kilogram of body weight) of Ac-225-PSMA-617 at bimonthly intervals.\nas §1"}, "[5]": {"test_system": "PSMA expressing cancers", "assay": "Treatment response monitored by PSA values in blood, patient cohorts", "assay_type": "in vivo, patients", "conditions": "comparative example"}, "[6]": {"conditions": "eight weeks after the first treatment cycle, 20 patients, 100 kBq/kg body weight"}, "[7]": {"conditions": "sixteen weeks after the first treatment cycle, 20 patients, 100 kBq/kg body weight"}, "[8]": {"conditions": "twenty-four weeks after the first treatment cycle, 20 patients, 100 kBq/kg body weight"}, "[9]": {"conditions": "patient A, checked every 2 week after each cycle"}, "[10]": {"conditions": "patient A, after additional 6 MBq consolidation therapy"}, "[11]": {"conditions": "30 patients, eight weeks after the first treatment cycle"}}}
{"smiles": "O=C(O)CCC(NC(=O)NC(CCCCNC(=O)C(Cc1cccc2ccccc12)NC(=O)C1CCC(CNC(=O)CN2CCN(CC(=O)O)CCN(CC(=O)O)CCN(CC(=O)O)CC2)CC1)C(=O)O)C(=O)O", "note": "(stereo not shown) [Ac-225-PSMA-617, metal not drawn]", "values": [{"measurement": "patients in PSA response", "setting": "[1]", "result": "15/28"}, {"measurement": "patients in PSA response (percentage)", "setting": "[1]", "result": 54, "unit": "%"}, {"measurement": "patients with decrease in PSA >25%", "setting": "[1]; [6]", "result": 17, "unit": "patients"}, {"measurement": "patients with decrease in PSA >50%", "setting": "[1]; [6]", "result": 12, "unit": "patients"}, {"measurement": "patients presenting a decrease in PSA", "setting": "[1]; eight weeks after the first treatment cycle, 20 patients, 100 kBq/kg body weight, 3 times in two month intervals", "result": "19/20"}, {"measurement": "patients presenting a decrease in PSA", "setting": "[1]; [7]", "result": "15/20"}, {"measurement": "patients with decrease in PSA >50%", "setting": "[1]; [7]", "result": 14, "unit": "patients"}, {"measurement": "patients presenting a decrease in PSA", "setting": "[1]; [8]", "result": "15/20"}, {"measurement": "patients with decrease in PSA >50%", "setting": "[1]; [8]", "result": 12, "unit": "patients"}, {"measurement": "change in thrombocyte or white blood cell count", "setting": "[2]", "result": "no significant change"}, {"measurement": "dysfunction of salivary glands", "setting": "[2]", "result": "Several patients reported dysfunction of salivary glands"}, {"measurement": "tolerability of the treatment", "setting": "[2]", "result": "well tolerated"}, {"measurement": "clinically reported side effect", "setting": "[3]; patient A", "result": "Moderate but enduring dysfunction of salivary glands"}, {"measurement": "hemoglobin level, CTCAE grade", "setting": "[3]; patient A", "result": "grade 2"}, {"measurement": "platelet level, grade according to Common Terminology Criteria for Adverse Events, version 4.0", "setting": "[3]; patient A", "result": "grade 1"}, {"measurement": "total white blood cell count, CTCAE grade", "setting": "[3]; patient A", "result": "grade 1"}, {"measurement": "hematologic toxicity (blood cell count)", "setting": "[3]; patient A, FIG. 13A", "result": "moderate hematologic toxicity"}, {"measurement": "hemoglobin level (lowest)", "setting": "[3]; [9]", "result": "≥ 9.5", "unit": "g/dL"}, {"measurement": "platelet level (lowest)", "setting": "[3]; [9]", "result": "≥ 100 /n1"}, {"measurement": "total white blood cell count (lowest)", "setting": "[3]; [9]", "result": "≥ 2.5 /n1"}, {"measurement": "reported side effect", "setting": "[3]; patient B", "result": "severe dysfunction of salivary glands"}, {"measurement": "hematologic toxicity (laboratory tests)", "setting": "[3]; patient B, 3 cycles of 6.4 MBq", "result": "no relevant hematologic toxicity"}, {"measurement": "tumor markers (PSA, alkaline phosphatase)", "setting": "[4]; patient A, FIG. 13B", "result": "Decline of tumor markers to none measurable or reference range"}, {"measurement": "PSA level", "setting": "[4]; [10]", "result": "less than 0.1 ng/ml"}, {"measurement": "imaging response", "setting": "[4]; [10]", "result": "complete imaging response"}, {"measurement": "previously PSMA-positive lesions on PSMA PET/CT", "setting": "[4]; patient A, two months after 3 cycles of 9-10 MBq (100 kBq/kg) at bimonthly intervals", "result": "visually disappeared"}, {"measurement": "PSA level", "setting": "[4]; patient A, two months after 3 cycles of 9-10 MBq, dropped from more than 3,000 ng/ml", "result": 0.26, "unit": "ng/mL"}, {"measurement": "restaging based on PSMA PET/CT", "setting": "[4]; patient B, after 2 cycles of 6.4 MBq (100 kBq/kg) at bimonthly intervals, after failed Lu-177-PSMA-617", "result": "partial response"}, {"measurement": "restaging based on PSMA PET/CT", "setting": "[4]; patient B, after 3 cycles of 6.4 MBq (100 kBq/kg) at bimonthly intervals", "result": "complete remission"}, {"measurement": "PSA level", "setting": "[4]; patient B, after 3 cycles of 6.4 MBq, below the measurable level", "result": "< 0.1", "unit": "ng/mL"}, {"measurement": "restaging on 68-Ga-PSMA-11 PET/CT", "setting": "[4]; patient B, after second and third cycles, FIG. 14C, 14D", "result": "impressive response"}]}
{"smiles": "O=C([O-])CN1CCN(CC(=O)[O-])CCN(CC(=O)NCC2CCC(C(=O)N[C@@H](Cc3ccc4ccccc4c3)C(=O)NCCCC[C@H](NC(=O)N[C@@H](CCC(=O)O)C(=O)O)C(=O)O)CC2)CCN(CC(=O)[O-])CC1.[177Lu+3]", "note": "(stereo partly shown) [Lu-177-PSMA-617, reference compound]", "values": [{"measurement": "patients in PSA response", "setting": "[1]", "result": "9/30"}, {"measurement": "patients in PSA response (percentage)", "setting": "[1]", "result": 30, "unit": "%"}, {"measurement": "response rate in comparison to Ac-225-PSMA-617 group", "setting": "[1]; comparison of treated groups", "result": "lower response rate"}, {"measurement": "patients presenting a decrease in PSA", "setting": "[5]; [11]", "result": "21/30"}, {"measurement": "patients with decrease in PSA >50%", "setting": "[5]; [11]", "result": 16, "unit": "patients"}, {"measurement": "patients presenting a decrease in PSA", "setting": "[5]; 30 patients, twenty-four weeks after the first treatment cycle, some patients dropped out", "result": "9/30"}, {"measurement": "patients with decrease in PSA >50% among those with PSA decrease", "setting": "[5]; twenty-four weeks after the first treatment cycle", "result": "all of them"}, {"measurement": "change in thrombocyte or white blood cell count", "setting": "[2]", "result": "no significant change"}, {"measurement": "dysfunction of salivary glands", "setting": "[2]", "result": "Mild moderate dysfunction of salivary glands"}, {"measurement": "tolerability of the treatment", "setting": "[2]", "result": "well tolerated"}, {"measurement": "lesions on PSMA PET/CT, restaging", "setting": "[4]; patient B, after 2 cycles of Lu-177-PSMA-617", "result": "tumor progression"}, {"measurement": "PSA level", "setting": "[4]; patient B, after cycle 2, 7.4 GBq per cycle, initial PSA level 294 ng/ml", "result": 419, "unit": "ng/mL"}]}
